Measured values reported in patent US20230227815A1, “Systems, Methods, And Compositions For A Facile Accelerated Specific Therapeutic (Fast) Pipeline” (priority 2019, published 2023).
≈ marks a conversion by molar mass, not a printed value.

Test system: E. Coli CUS2B
Assay: Minimum inhibitory concentration assay
Format: cell-based
Settings: for resistance phenotype (CLSI breakpoints): E. Coli CUS2B clinical isolate; for MIC: Escherichia coli, E. Coli CUS2B
Source text: To validate the E. Coli CUS2B resistance phenotype observed in the clinic, we measured the isolate's minimum inhibitory concentrations (MIC) for a variety of antibiotics from different classes (FIG. 17A). […] Two potent carbapenem antibiotics, meropenem and doripenem, were the only drugs to which the clinical isolate was susceptible. To investigate this partial carbapenem resistance, we focused on the E. Coli CUS2B response to ertapenem and meropenem. The structures of meropenem and ertapenem differ in the pyrrolidinyl ring's position 2 side chain (FIG. 17B). Meropenem's substituent amide group is thought to be responsible for increased potency against gram-negative organisms in comparison to imipenem. At this position ertapenem has a benzoate substituent group, which imbues the molecule with a net negative charge and increases its lipophilicity, resulting in increased plasma half-life but decreased affinity for membrane porins.
E. Coli CUS2B was provided the Dr. Nancy Madinger, at the University of Colorado Hospital Clinical Microbiology Laboratory's organism bank. The isolate was obtained via rectal swab from a pregnant patient. Unless otherwise mentioned, CUS2B was propagated in aerobic conditions at 37° C. in liquid cultures of cation-adjusted Mueller Hinton broth (CAMHB) with shaking at 225 rpm or on solid CAMHB with 15 g/L of agar. Minimum inhibitory concentration assays Three colonies were picked from a plate and used to inoculate three separate overnight cultures in 1 mL CAMHB each. After 16 hours, the cultures were diluted 1:10,000 and treated with a range of antibiotic concentrations, decreasing in 2-fold increments, in a 384 or 96-well microplate using three biological replicates per condition. Growth in the plate was monitored with a Tecan GENios (Tecan Group Ltd.) running Magellan™ software (v 7.2) at an absorbance of 461 590 nm every 20 minutes for 16 hours, with shaking between measurements. The minimum inhibitory concentration was identified as the lowest antibiotic concentration preventing growth.

Row | Compound | resistance phenotype (CLSI breakpoints) | MIC [µg/mL]
1 | C[C@@H](O)[C@H]1C(=O)N2C(C(=O)O)=C(S[C@@H]3CN[C@H](C(=O)Nc4cccc(C(=O)O)c4)C3)[C@H](C)[C@H]12 [ertapenem] | resistant | 2 (≈ 4.21 µM)
2 | C[C@@H](O)[C@H]1C(=O)N2C(C(=O)O)=C(S[C@@H]3CN[C@H](C(=O)N(C)C)C3)[C@H](C)[C@H]12 [meropenem] | susceptible | 0.25 (≈ 0.652 µM)
3 | C[C@@H](O)[C@H]1C(=O)N2C(C(=O)O)=C(S[C@@H]3CN[C@H](CNS(N)(=O)=O)C3)[C@H](C)[C@H]12 [doripenem] | susceptible | –
